Test results reported in ChEMBL document CHEMBL3714766, “Tetrahydroisoquinoline compounds and their use as pyruvate dehydrogenase kinase inhibitors” (2015).

Experiments:
[1] = target: T1, Pyruvate dehydrogenase kinase (Homo sapiens, UniProt Q15119+Q15120+Q16654+Q15118); assay: Inhibition of pyruvate dehydrogenase kinase (unknown origin) assessed as reduction in E1 phosphorylation incubated for 1 hr by DELFIA method; format: protein assay
[2] = target: T1, Pyruvate dehydrogenase kinase; assay: Inhibition of pyruvate dehydrogenase kinase in human PC3 cells incubated for 90 mins by phospho(Ser293)E1alpha MSP ELISA method; format: cell-based; conditions: pc-3

Row | Structure (SMILES) | IC50 [1] | IC50 [2]
1 | Cc1cnc(Cl)nc1-c1ccc2c(c1)CC[C@H](c1cccnc1)N2C(=O)c1ccc(O)cc1O | 100 nM | 1000 nM
2 | COc1cnc(Cl)nc1-c1ccc2c(c1)CC[C@H](c1cccnc1)N2C(=O)c1cc(Cl)c(O)cc1O | 100 nM | 1000 nM
